The record followed here is publication PMC8347364 (International Journal of Molecular Sciences, 2021).

One assay has as its target T1, (UniProt A0A6M3RDS9).
T1 construct: gene ureG; Strep-tagged UreG (GenBank ID: MN660252)
Nature of the assay: malachite green GTPase assay (IC50); Lineweaver-Burk Ki […]; CD change; ITC of nickel binding in its presence. The class given is biochemical, uncultured rumen bacterium.

A further assay has as its target T2, ureG (uncultured rumen bacterium, UniProt A0A6M3RDS9).
T2 construct: Strep-tagged UreG (GenBank ID: MN660252)
Nature of the assay: malachite green GTPase assay, single concentration […], almost […] inhibition. It is filed as biochemical.

T2 sequence (A0A6M3RDS9 1-203): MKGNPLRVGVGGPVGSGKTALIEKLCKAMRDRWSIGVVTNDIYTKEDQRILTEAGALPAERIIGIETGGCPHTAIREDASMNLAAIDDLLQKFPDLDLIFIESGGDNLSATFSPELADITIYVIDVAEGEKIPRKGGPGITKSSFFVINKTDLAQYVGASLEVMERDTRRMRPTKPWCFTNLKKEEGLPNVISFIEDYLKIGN
T1 sequence (A0A6M3RDS9 1-203): as above

`COc1ccc2c(c[n+](C)c3c4cc5c(cc4ccc23)OCO5)c1OC` [chelerythrine chloride]: on (UniProt A0A6M3RDS9), the half-maximal inhibitory concentration (IC50) (usually the concentration needed to halve the response being measured) was 18.1 µM.

On to `C=C(C)[C@@H]1CC[C@]2(C(=O)O)CC[C@]3(C)[C@H](CC[C@@H]4[C@@]5(C)CC[C@H](O)[C@@](C)(CO)[C@@H]5CC[C@]43C)[C@@H]12` [anemosapogenin], for which the inhibition (as a rule, how much of the control response was suppressed) at 100 µM on ureG was approximately 100%.

In the case of `O=C(/C=C/c1ccc(O)c(O)c1)O[C@H]1[C@H](O)C[C@](O)(C(=O)O)C[C@H]1OC(=O)/C=C/c1ccc(O)c(O)c1` [isochlorogenic acid B], the inhibition at 100 µM at ureG was approximately 100%.
